What was measured:
senescent cells = experiment: Cisplatin-induced peripheral neuropathy (CIPN) in p16-3MR transgenic mice, Von Frey assay and Hot Plate Analgesia Meter; assay type: in vivo; settings: GCV 25 mg/kg/day or ABT263 50 mg/kg/day i.p., 5 days per cycle, 2 cycles, FIG. 8-11
Description: CIPN was induced in young adult male and female p16-3MR mice by intraperitoneal (i.p.) injection of cisplatin (Lake Zurich, Ill., USA) at 2.3 mg/kg/d for 5 days per cycle for 2 cycles with an interval of 5 days between the cycles. The induction of CIPN was measured by analyzing the mechanical sensitivity using the Von Frey assay the day before Cisplatin treatment and on various day after Cisplatin treatment. N=5-6 mice per group.
Mice were treated as described in FIG. 8. The induction of CIPN was measured by analyzing the sensitivity to thermal allodynia using the Hot Plate Analgesia Meter on various day after Cisplatin treatment. N=5-6 mice per group.
To determine the effect of senescent cells on the induction of CIPN, cisplatin-treated mice were administered with vehicle, ganciclovir (GCV) at 25 mg/kg/day for 5 days per cycle for 2 cycles with an interval of 17 days between the cycles, or ABT263 at 50 mg/kg/day for 5 days per cycle for 2 cycles with an interval of 17 days between the cycles by i.p. injection at the indicated times after cisplatin treatment. […] The induction of CIPN was measured by analyzing the mechanical sensitivity using the Von Frey assay (FIG. 8 and FIG. 9) and by analyzing the sensitivity to thermal allodynia using the Hot Plate Analgesia Meter (FIG. 10 and FIG. 11) the day before Cisplatin treatment and on various day after Cisplatin treatment.

Bcl-xL = target: T1, Bcl-xL (Homo sapiens, UniProt Q07817); experiment: Protein degradation assay (western blot) in IR-SC WI38 cells; assay type: cell-based; settings: increasing concentrations for 18 hours (FIG. 3A); fixed concentration for increasing times (FIG. 3B)
T1 construct: endogenous in cells; host or cells: IR-SC WI38 cells
Description: IR-SC WI38 cells were incubated with vehicle or increasing concentrations of XZ-14439 for 18 hours at increasing […] (FIG. 3A) and at a fixed concentration of XZ-14439 for increasing times (FIG. 3B). The cells were digested with 0.25% trypsin and 1 mM EDTA, and harvested in RIPA lysis buffer with 1% Phosphatase Inhibitor Cocktail 3 and 1% Protease Inhibitor Cocktail. An equal amount of protein (15-30 μg/lane) from each cell extract was resolved on a 12% SDS-PAGE gel. Proteins were blotted onto a NOVEX PVDF membrane by electrophoresis. The membranes were blocked with TBS-T blocking buffer (5% nonfat milk in 25 mM Tris-HCL, pH 7.4; 3 mM KCl; […] NaCl; and 0.05% Tween) and probed with primary antibodies (at a predetermined optimal concentration) overnight at 4° C. or for 1 hour at room temperature. […] After three washes with TBS-T, the proteins of interest were detected with ECL Western Blotting Detection Reagents and recorded with autoradiography (Pierce Biotech, Rockford, Ill., USA). […]
IR-SC WI38 (FIG. 4A) and RS4; 11 (FIG. 4B) cells were incubated with vehicle or increasing concentrations of compounds of Formula (I) or Formula (II) for 6 or 16 hours, at 1 μM (FIG. 4A) and 100 nm (FIG. 4B), respectively. […] After three washes with TBS-T, the proteins of interest were detected with ECL Western Blotting Detection Reagents and recorded with autoradiography. […]

Normal WI38 (NSC) = experiment: Viability of normal WI38 cells, PI staining and flow cytometry, 72 hours; assay type: cell-based; settings: viable PI- cells as percentage of vehicle control
Description: (§1) Normal WI38 (NSC) and IR-induced senescent WI38 cells (IR-SC) were incubated with vehicle or increasing concentrations of compounds of Formula (I) or Formula (II) for 72 hours. The cells were digested with 0.25% trypsin and 1 mM EDTA, and harvested in PBS containing 2% FBS. After incubation with propidium iodide (PI, 100 ng/ml) in PBS at room temperature for 1 minute, cells were centrifuged at 1,200 rpm for 6 minutes to remove PI and then resuspended in PBS containing 2% FBS for analysis using a flow cytometer. Viable cells (PI− cells) were analyzed by flow cytometry at a constant flow rate to count the number of cells and calculated as a percentage of control cells treated with vehicle. Table 1 depicts the EC50 values of the compounds of Formula (I) and compounds of Formula (II) against normal WI38 and IR-induced senescent WI38.

[1] = test system: IR-induced senescent WI38 cells (IR-SC); experiment: Viability of IR-induced senescent WI38 cells, PI staining and flow cytometry, 72 hours; assay type: cell-based; settings: IR-induced senescent WI38 cells, 72 hours, viable PI- cells as percentage of vehicle control
Description: as §1

RS4; 11 cancer cells = experiment: Cancer cell viability by MTS, 72 hours; assay type: cell-based; settings: 11 cells
Description: (§2) RS4; 11 and NCI-H146 cancer cells were incubated with vehicle or increasing concentrations of compounds of Formula (I) and Formula (II). At 72 hours post-treatment cell viability was measured by MTS and EC50 was calculated as a percentage of control cells treated with vehicle. Table 1 depicts the EC50 values of compounds of Formula (I) and Formula (II) against RS4; 11 and NCI-H146.

NCI-H146 cancer cells = experiment: Cancer cell viability by MTS, 72 hours; assay type: cell-based
Description: as §2

T1 sequence (Q07817 whole entry): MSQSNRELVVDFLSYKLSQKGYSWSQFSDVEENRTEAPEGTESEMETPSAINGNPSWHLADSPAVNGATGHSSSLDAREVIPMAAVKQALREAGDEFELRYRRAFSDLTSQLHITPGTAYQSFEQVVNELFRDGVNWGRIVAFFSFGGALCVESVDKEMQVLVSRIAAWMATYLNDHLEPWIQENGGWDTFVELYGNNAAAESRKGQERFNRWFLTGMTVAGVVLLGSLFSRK

Nc1nc(O)c2ncn(COC(CO)CO)c2n1 [GCV, ganciclovir]
Reversal of cisplatin-induced peripheral neuropathy (senescent cells): reversed cisplatin-induced peripheral neuropathy (CIPN)

CC1(C)CCC(c2ccc(Cl)cc2)=C(CN2CCN(c3ccc(C(=O)NS(=O)(=O)c4ccc(N[C@H](CCN5CCN(C(=O)CCCn6cc(COCCOCCOCCNc7cccc8c7C(=O)N(C7CCC(=O)NC7=O)C8=O)nn6)CC5)CSc5ccccc5)c(S(=O)(=O)C(F)(F)F)c4)cc3)CC2)C1 (stereo partly drawn) [XZ-14439, 4-(4-((4′-chloro-4,4-dimethyl-3,4,5,6-tetrahydro-[1,1′-biphenyl]-2-yl)methyl)piperazin-1-yl)-N-((4-(((2R)-4-(4-(4-(4-((2-(2-(2-((2-(2,6-dioxopiperidin-3-yl)-1,3-dioxoisoindolin-4-yl)amino)ethoxy)ethoxy)ethoxy)methyl)-1H-1,2,3-triazol-1-yl)butanoyl)piperazin-1-yl)-1-(phenylthio)butan-2-yl)amino)-3-((trifluoromethyl)sulfonyl)phenyl)sulfonyl)benzamide]
Bcl-xL depletion in IR-SC WI38 cells, dose and time dependence (Bcl-xL): depletes Bcl-xL

CC1(C)CCC(CN2CCN(c3ccc(C(=O)NS(=O)(=O)c4ccc(NCC5CCN(C(=O)CCCn6cc(COCCOCCOCCNc7cccc8c7C(=O)N(C7CCC(=O)NC7=O)C8=O)nn6)CC5)c([N+](=O)[O-])c4)c(Oc4cnc5[nH]ccc5c4)c3)CC2)=C(c2ccc(Cl)cc2)C1 (stereo not drawn) [XZ-14523, 2-((1H-pyrrolo[2,3-b]pyridin-5-yl)oxy)-4-(4-((4′-chloro-5,5-dimethyl-3,4,5,6-tetrahydro-[1,1′-biphenyl]-2-yl)methyl)piperazin-1-yl)-N-((4-(((1-(4-(4-((2-(2-(2-((2-(2,6-dioxopiperidin-3-yl)-1,3-dioxoisoindolin-4-14)amino)ethoxy)ethoxy)ethoxy)methyl)-1H-1,2,3-triazol-1-yl)butanoyl)piperidin-4-yl)methyl)amino)-3-nitrophenyl)sulfonyl)benzamide]
EC50 (Normal WI38 (NSC)): > 10000 nM | EC50 [1]: > 10000 nM | EC50 (RS4; 11 cancer cells): 161 nM | EC50 (NCI-H146 cancer cells): 1260 nM

— US20190054097A1, “COMPOSITIONS TARGETING SENESCENT CELLS AND THE USES THEREOF” (BioVentures, LLC, priority 2016, published 2019)
